Measurements reported in US6638910B2, “Compositions and methods for controlling plant pests” (priority 1997, dated 2003).
Like-named read-outs stand apart in the source and are kept apart here. Starred links: 1 amine or outer side, 2 acyl side, 3 side chain; linkers in the order of their positions; H or OH if unused. Positions of bridges follow the written chain, without caps; N, C: chain ends. Non-standard residues stand in square brackets, D forms with d. Residues, ends and D or L forms follow the SMILES beside them. X1 = CC(C)CCCCCCCCC[C@H](CC(=O)[*:1])O[*:2]

Key:
Rhizoctonia solani = assay: Greenhouse test, Sheath Blight on Rice; type: in vivo
Phytophthora infestans = type: in vivo; conditions: Tomato
Plasmopara viticola = assay: Greenhouse test, grape downy mildew; conditions: Chardonnay grape
Uncinula necator = assay: Greenhouse test, Powdery Mildew on Grape; type: in vivo
Pyricularia oryzae = type: in vivo; conditions: Rice
E. graminis = assay: Greenhouse test, Powdery Mildew on Wheat; type: in vivo, Erysiphe graminis f. sp. graminis
Botrytis cinerea = assay: Greenhouse test, Gray Mold on Pepper; type: in vivo
[1] = tested on: N2 strain of the nematode Caenorhabditis elegans; assay: 96-well microplate nematicidal assay, score rating; type: in vivo; conditions: Table 16; score 1 (all dead or stunted) to 4 (no dead)
[2] = tested on: pre-adult beet armyworms (Spodoptera exigua); assay: 96-well microplate insecticidal assay, score rating; type: in vivo; conditions: Table 16; score 1 (all dead or stunted) to 4 (no dead)
Method: (§1) Bacillus samples were grown in a Bacillus culture media. […] One day old streaked cultures were used to inoculate 250 mL baffled shake flasks. Flasks were shaken at 200 rpm at 29° C. for 5 days. To assay insecticidal activity, 35 mL of culture broth were centrifuged at 5,200 rpm for 20 minutes and the supernatant used in microassay described below. Assays were performed in 96-well microplates. […] To assay insecticidal activity, an agar substrate was prepared for the wells of the microplate according to Marrone et al. (1985), J. Econ. Entomol. 78: 290-293. […] Deionized water was used as a negative control. Two replicates of test sample or control were used for each assay. 40 μL of supernatant sample or whole broth grown in medium 1, 2 or 3 were dispensed into each sample well. Plates were then placed in a fume hood to dry for approximately 2-3 hours until the agar solution was dried. […] The microplate was sealed with an airtight substance such as Mylar®, and each well ventilated with a pin press. The plates were incubated at 27° C. for up to 7 days. After incubation, wells were scored by noting neonate mortality or the degree of larval development. […] Scores were averaged among replicates within each sample. […] It contained the same ingredients as medium 3 without proflo cotton seed extract. All other procedures were the same as above. The test was repeated two or three times.

[3] = tested on: pre-adult corn rootworms (Diabrotica undecimpunctata); assay: as above; type: in vivo; conditions: Table 16; score 1 (all dead or stunted) to 4 (no dead)
Method: as §1

[4] = tested on: fungi including Penicillium chrysogenum; conditions: Peypoux et al. (1978) Tetrahedron 34:1147-1152; cited from earlier work
Saccharomyces cerevesiae = conditions: Beeson et al. (1979) J. Antibiotics 32(8):828-833; cited from earlier work

CCCCNC(=O)n1c(NC(=O)OC)nc2ccccc21 [Benomyl]
percent disease control, R. solani (Rhizoctonia solani; 40 ppm): 77% | percent disease control, R. solani (Rhizoctonia solani; 100 ppm): 100%

COCC(=O)N(c1c(C)cccc1C)C(C)C(=O)OC (stereo not shown) [Metalaxyl]
percent disease control, P. infestans (Phytophthora infestans; 10 ppm): 77% | percent disease control, P. infestans (Phytophthora infestans; 30 ppm): 100% | percent disease control (Plasmopara viticola; 1 ppm): 80% control | percent disease control (Plasmopara viticola; 10 ppm): 98.3% control | percent disease control (Plasmopara viticola; 30 ppm): 100% control

CCCCC(C#N)(Cn1cncn1)c1ccc(Cl)cc1 (stereo not shown) [Myclobutanil]
percent disease control, U. necator (Uncinula necator; 10 ppm): 100% | percent disease control, U. necator (Uncinula necator; 30 ppm): 100%

O=C(Nc1ccccc1)N(Cc1ccc(Cl)cc1)C1CCCC1 [Pencycuron]
percent disease control, P. oryzae (Pyricularia oryzae; 10 ppm): 100% | percent disease control, P. oryzae (Pyricularia oryzae; 50 ppm): 100%

CCCC1COC(Cn2cncn2)(c2ccc(Cl)cc2Cl)O1 (stereo not shown) [Propiconazole]
percent disease control, E. graminis (E. graminis; 0.2 ppm): 54% | percent disease control, E. graminis (E. graminis; 0.5 ppm): 100% | percent disease control, B. cinerea (Botrytis cinerea; 5 ppm): 57% | percent disease control, B. cinerea (Botrytis cinerea; 10 ppm): 87%

CC(C)CCCCCCCCC[C@@H]1CC(=O)N[C@@H](CCC(=O)O)C(=O)N[C@@H](CC(C)C)C(=O)N[C@H](CC(C)C)C(=O)N[C@@H](C(C)C)C(=O)N[C@@H](CC(=O)O)C(=O)N[C@H](CC(C)C)C(=O)N[C@@H](CC(C)C)C(=O)O1 [Surfactin] (EL[dL]VD[dL]L; linker N-C via X1)
Activity score, C. Elegans [1]: 4.0 | Activity score, Beet armyworm [2]: 4.0 | Activity score, Corn rootworm [3]: 2.0

Iturin-C
activity against fungi [4]: inactive

bacillomycin L
LC50 (Saccharomyces cerevesiae): 30 µg/mL

iturin-A
LC50 (Saccharomyces cerevesiae): 30 µg/mL

mycosubtilin
LC50 (Saccharomyces cerevesiae): 10 µg/mL
